Assay results: EP1614683B1, “Indazole compounds and pharmaceutical compositions for inhibiting protein kinases, and methods for their use” (priority 1999, dated 2001)
pIC50: −log10 of the molar value. Where two headings read alike, the source gives them in different places.

Key:
[1] = molecular target: CDK4/Cyclin D3 complex (Homo sapiens, UniProt P11802); experiment: biochemical; details: read-out: CDK4 * (% inhibition)
[2] = molecular target: T1, human FAK (FAKcd409) (Homo sapiens, UniProt Q05397, P410T); experiment: FAK fluorescence polarization assay; assay type: biochemical; details: Table 5; 1 µM; read-out: % Inhibition @ 1 µM FAK
T1 construct: comprises residues methionine 409 to glutamate 689; made in house; host or cells: baculovirus vector expression system (insect cells)
T1 sequence (Q05397 409-689 P410T): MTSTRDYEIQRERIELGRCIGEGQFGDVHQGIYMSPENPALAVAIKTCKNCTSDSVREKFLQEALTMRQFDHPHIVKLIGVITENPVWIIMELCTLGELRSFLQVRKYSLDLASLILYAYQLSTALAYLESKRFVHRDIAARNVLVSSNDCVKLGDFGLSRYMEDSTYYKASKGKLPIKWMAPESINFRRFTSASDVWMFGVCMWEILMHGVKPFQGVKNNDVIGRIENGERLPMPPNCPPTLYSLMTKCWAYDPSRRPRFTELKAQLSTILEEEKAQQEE
Outline: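 Baculovirus-expressed FAK catalytic domain (FAKcd409, 5 nM) phosphorylating 1 mg/ml poly Glu-Tyr (4:1) with 1 mM ATP in 100 mM Hepes pH 7.5, 10 mM MgCl2, 1 mM DTT. Stopped with EDTA; fluorescent peptide and anti-phosphotyrosine antibody added, product detected by fluorescence polarization.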

[3] = molecular target: CDK2/Cyclin A complex (Homo sapiens, UniProt P24941); experiment: CDK2/Cyclin A assay ([32P]ATP incorporation into Rb fragment); assay type: biochemical; details: read-out: CDK2 * (% inhibition)
[4] = system: human umbilical vein endothelial cells (HUVEC); experiment: HUVEC proliferation assay (VEGF-stimulated, MTT); assay type: cell-based; details: Homo sapiens, HUVEC, Table 1
[5] = in vitro; assay type: in vitro ADME, human; details: human liver microsomes, 5 µM test compound, 37 °C, 2 h
Outline: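 HLM diluted to 5 mg/mL in 100 mM KPO4, preincubated 10 min at 37 °C with NADPH-regenerating system. Compound (5 µM final) incubated at 37 °C in triplicate, sampled at 0 and 2 h into ice-cold acetonitrile, then LC-MS analysis.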

[6] = molecular target: T2, human CHK1 (FL-CHK1) (Homo sapiens, UniProt O14757); experiment: CHK1 coupled spectrophotometric assay; assay type: biochemical; details: read-out: CHK -1* (% inhibition)
T2 construct: C-terminally His-tagged full-length human CHK1 (FL-CHK1) was expressed using the baculovirus/insect cell system; made in house; host or cells: baculovirus/insect cell system
T2 sequence (O14757 1-476): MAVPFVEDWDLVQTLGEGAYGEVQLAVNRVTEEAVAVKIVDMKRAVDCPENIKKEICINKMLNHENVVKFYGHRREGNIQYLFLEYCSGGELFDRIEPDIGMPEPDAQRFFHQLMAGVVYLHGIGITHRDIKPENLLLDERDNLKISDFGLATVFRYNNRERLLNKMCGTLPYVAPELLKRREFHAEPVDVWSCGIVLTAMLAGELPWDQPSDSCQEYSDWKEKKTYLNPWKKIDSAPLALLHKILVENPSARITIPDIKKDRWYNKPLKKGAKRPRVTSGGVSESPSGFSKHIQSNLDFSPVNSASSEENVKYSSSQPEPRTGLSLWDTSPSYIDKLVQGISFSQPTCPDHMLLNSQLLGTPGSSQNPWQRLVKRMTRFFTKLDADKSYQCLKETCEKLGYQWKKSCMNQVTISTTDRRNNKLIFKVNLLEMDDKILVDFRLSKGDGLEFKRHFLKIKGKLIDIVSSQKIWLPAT
Outline: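 His-tagged full-length human CHK1 from baculovirus/insect cells, 10 nM, phosphorylating Syntide-2. ADP formation coupled via PK/LDH with PEP to NADH oxidation, followed as absorbance decrease at 340 nm. Ki from initial rates at varying compound concentrations.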

[7] = molecular target: LCK tyrosine kinase (Homo sapiens, UniProt P06239, C224D/P223M); experiment: LCK spectrophotometric assay; assay type: biochemical; details: Table 1; compound concentration 1 µM; read-out: Lck-P* (% inhibition)
LCK tyrosine kinase, sequence (P06239 223-509 P223M/C224D): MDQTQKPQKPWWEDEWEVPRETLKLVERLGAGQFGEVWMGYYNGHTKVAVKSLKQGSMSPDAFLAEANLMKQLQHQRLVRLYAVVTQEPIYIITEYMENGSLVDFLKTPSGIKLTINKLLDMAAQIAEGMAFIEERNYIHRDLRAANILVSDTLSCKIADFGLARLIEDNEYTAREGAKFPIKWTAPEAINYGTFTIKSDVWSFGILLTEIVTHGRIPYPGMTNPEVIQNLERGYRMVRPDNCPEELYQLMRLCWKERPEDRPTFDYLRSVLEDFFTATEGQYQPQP
Procedure: The spectrophotometric assay was carried out as described above for VEGF-R2, except for the following changes in concentration: LCK = 60 nM, MgCl2 = 0 mM, poly(E4Y1) = 20 mM.

[8] = + albumin, read-out: HUVEC + albumin IC50

CDK4/Cyclin D3 complex, sequence (P11802 whole entry): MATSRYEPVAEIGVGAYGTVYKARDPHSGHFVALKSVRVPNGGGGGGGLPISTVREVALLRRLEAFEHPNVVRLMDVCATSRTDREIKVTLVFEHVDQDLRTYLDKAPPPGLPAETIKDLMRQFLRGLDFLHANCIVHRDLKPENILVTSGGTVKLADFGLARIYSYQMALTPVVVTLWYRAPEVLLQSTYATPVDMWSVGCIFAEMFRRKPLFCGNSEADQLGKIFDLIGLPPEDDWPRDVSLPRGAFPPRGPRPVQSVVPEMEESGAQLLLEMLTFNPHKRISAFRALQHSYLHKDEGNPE
CDK4/Cyclin D3 complex, sequence (P30281 whole entry partner): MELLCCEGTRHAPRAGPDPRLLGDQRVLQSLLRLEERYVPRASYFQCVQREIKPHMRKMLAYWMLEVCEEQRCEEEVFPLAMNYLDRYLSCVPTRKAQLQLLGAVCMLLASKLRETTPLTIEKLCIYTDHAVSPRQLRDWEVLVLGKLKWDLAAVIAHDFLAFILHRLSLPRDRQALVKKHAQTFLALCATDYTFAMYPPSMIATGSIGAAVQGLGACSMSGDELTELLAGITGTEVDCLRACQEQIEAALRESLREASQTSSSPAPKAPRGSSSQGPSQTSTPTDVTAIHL

SMILES: CCn1nc(C)cc1C(=O)Nc1cccc(Oc2ccc3c(/C=C/c4ccccn4)n[nH]c3c2)c1 [Reference Example 31(d), 6-[3-((1-Ethyl-3-methyl-1H-pyrazol-5-yl)carboxamido)phenoxy]-3-E-[2-(pridin-2-yl)ethenyl]-1H-indazole]
- inhibition at 1 µM [1]: 9%
- inhibition at 1 µM [2]: 6%
- inhibition at 1 µM [3]: 5%
- pIC50 [4, 8]: ~7.89
- pIC50 ([4]; read-out: HUVEC IC50): 8.89
- % remain (HLM, 2 h) [5]: 110%
- inhibition at 1 µM [6]: 0%
- inhibition at 1 µM [7]: 52%

SMILES: C#CCNC(=O)c1ccccc1Sc1ccc2c(/C=C/c3ccccn3)n[nH]c2c1 [Reference Example 35(cc), 6-[2-(2-Propynylcarbamoyl)phenylsulfany]-3-E-[2-(pyridin-2-yl)ethenyl]-1H-indazole]
- inhibition at 1 µM [1]: 6%
- inhibition at 1 µM [2]: 7%
- inhibition at 1 µM [3]: 5%
- pIC50 [4, 8]: 8.80
- pIC50 ([4]; read-out: HUVEC IC50): 10.30
- % remain (HLM, 2 h) [5]: 31%
- inhibition at 1 µM [6]: 0%
- inhibition at 1 µM [7]: 15%

SMILES: CCONC(=O)c1ccccc1Sc1ccc2c(/C=C/c3ccccn3)n[nH]c2c1 [Reference Example 35(dd), 6-[2-(ethoxycarbamoyl)phenylsufanyl]-3-E-[2-(pyridin-2-yl)ethenyl]-1H-indazole]
- inhibition at 1 µM [1]: 8%
- inhibition at 1 µM [2]: 4%
- inhibition at 1 µM [3]: 7%
- pIC50 [4, 8]: 8.54
- pIC50 ([4]; read-out: HUVEC IC50): 9.74
- % remain (HLM, 2 h) [5]: 26%
- inhibition at 1 µM [6]: 0%
- inhibition at 1 µM [7]: 17%

SMILES: CC(C)ONC(=O)c1ccccc1Sc1ccc2c(/C=C/c3ccccn3)n[nH]c2c1 [Reference Example 35(k)]
- inhibition at 1 µM [1]: 7%
- inhibition at 1 µM [2]: 7%
- inhibition at 1 µM [3]: 8%
- pIC50 [4, 8]: 8.66
- % remain (HLM, 2 h) [5]: 14%
- inhibition at 1 µM [6]: 0%
- inhibition at 1 µM [7]: 6%

SMILES: O=C(NNc1ccccn1)c1ccccc1Sc1ccc2c(/C=C/c3ccccn3)n[nH]c2c1 [Reference Example 35(n), 6-[2-(N^2-(pyrid-2-ylhydrazino)carbonyl)phenylsulfanyl]-3-E-[2-(pyridin-2-yl)ethenyl]-1H-indazole]
- inhibition at 1 µM [1]: 10%
- inhibition at 1 µM [2]: 1%
- inhibition at 1 µM [3]: 4%
- pIC50 [4, 8]: 7.96
- pIC50 ([4]; read-out: HUVEC IC50): 9.96
- % remain (HLM, 2 h) [5]: 47%
- inhibition at 1 µM [6]: 23%
- inhibition at 1 µM [7]: 58%

SMILES: CCn1nc(C)cc1C(=O)Nc1cccc(C(=O)c2ccc3c(/C=C/c4ccccn4)n[nH]c3c2)c1 [Reference Example 41(a), 6-[3-((1-Ethyl-3-methyl-1H-pyrazol-5-yl)carboxamido)benzoyl]. 3-E-[2-(pyridin-2-yl)ethenyl]-1H-indazole]
- inhibition at 1 µM [1]: 6%
- inhibition at 1 µM [2]: 5%
- inhibition at 1 µM [3]: 0%
- pIC50 [4, 8]: 8.36
- pIC50 ([4]; read-out: HUVEC IC50): 9.32
- % remain (HLM, 2 h) [5]: 96%
- inhibition at 1 µM [6]: 0%
- inhibition at 1 µM [7]: 50%

SMILES: CCn1nc(C)cc1C(=O)Nc1cc(C(=O)c2ccc3c(/C=C/c4ccccn4)n[nH]c3c2)ccc1C [Reference Example 41(ee), 6-[3-((1-Ethyl-3-methyl-1H-pyrazol-5-yl)carboxamido)-4-methylbenzoyl]-3-E-[2-(pyridin-2-yl)ethenyl]-1H-indazole]
- inhibition at 1 µM [1]: 2%
- inhibition at 1 µM [2]: 7%
- inhibition at 1 µM [3]: 0%
- pIC50 [4, 8]: 8.37
- pIC50 ([4]; read-out: HUVEC IC50): 9.62
- % remain (HLM, 2 h) [5]: 47%
- inhibition at 1 µM [6]: 0%
- inhibition at 1 µM [7]: 13%

SMILES: CCCn1nc(C)cc1C(=O)Nc1cccc(C(=O)c2ccc3c(/C=C/c4ccccn4)n[nH]c3c2)c1 [Reference Example 41(r)]
- inhibition at 1 µM [1]: 5%
- inhibition at 1 µM [2]: 5%
- inhibition at 1 µM [3]: 0%
- pIC50 [4, 8]: 7.96
- % remain (HLM, 2 h) [5]: 83%
- inhibition at 1 µM [6]: 0%
- inhibition at 1 µM [7]: 55%
